From ChEMBL document CHEMBL1201862, “PubChem BioAssay data set” (2004)
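Where inhibition never reached the appropriate level, the endpoint shown equals the highest concentration tested. Otherwise, values were interpolated linearly from a five-concentration, 48-hour dose response in 96-well plates. GI50 marks 50% less growth.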 Calls of active or inactive are those of the source. No stated cut-off is given here; in the data, active = GI50 up to about 1.1 µM and inactive = higher. Where a SMILES comes first, the peptide text is derived from it. [ ]: non-standard residue; d: D form. The star is where a group is joined. Bn2Val = CC(C)[C@@H](C(=O)*)N(Cc1ccccc1)Cc1ccccc1; NHPiperonyl = c1cc2c(cc1CN*)OCO2; NMeV = CN[C@H](C(=O)O)C(C)C; dNMeA = CN[C@H](C)C(=O)O

Tests used:
Assay in all cases: DTP human tumour cell line panel, 48 h
SF-268 = system: SF-268
SN12C = system: SN12C
786-0 = system: 786-0
DU-145 = system: DU-145
CAKI-1 = system: CAKI-1
SNB-75 = system: SNB-75
HOP-62 = system: HOP-62
NCI-H460 = system: NCI-H460
SK-MEL-5 = system: SK-MEL-5
TK-10 = system: TK-10
HT-29 = system: HT-29
COLO 205 = system: COLO 205
HL-60 = system: HL-60
SK-OV-3 = system: SK-OV-3
Hs-578T = system: Hs-578T
MDA-MB-231 = system: MDA-MB-231
A498 = system: A498
T47D = system: T47D

| SMILES | GI50 (SF-268) | GI50 (SN12C) | GI50 (786-0) | GI50 (DU-145) | GI50 (CAKI-1) | GI50 (SNB-75) | GI50 (HOP-62) | GI50 (NCI-H460) | GI50 (SK-MEL-5) | GI50 (TK-10) | GI50 (HT-29) | GI50 (COLO 205) | GI50 (HL-60) | GI50 (SK-OV-3) | GI50 (Hs-578T) | GI50 (MDA-MB-231) | GI50 (A498) | GI50 (T47D) |
| --- | --- | --- | --- | --- | --- | --- | --- | --- | --- | --- | --- | --- | --- | --- | --- | --- | --- | --- |
| CN(C)CCCNC(=O)c1c(-c2cccnc2)cnc2ccccc12 | > 100 µM (inactive) | > 100 µM (inactive) | > 100 µM (inactive) | > 100 µM (inactive) | > 100 µM (inactive) | 14.9 µM (inactive) | > 100 µM (inactive) | > 100 µM (inactive) | 61.9 µM (inactive) | > 100 µM (inactive) | > 100 µM (inactive) | > 100 µM (inactive) | > 100 µM (inactive) | > 100 µM (inactive) | – | – | – | – |
| C=C[C@@H]1OC(=O)O[C@H]1CO | > 100 µM (inactive) | > 100 µM (inactive) | > 100 µM (inactive) | > 100 µM (inactive) | – | > 100 µM (inactive) | > 100 µM (inactive) | – | > 100 µM (inactive) | > 100 µM (inactive) | > 100 µM (inactive) | > 100 µM (inactive) | – | > 100 µM (inactive) | > 100 µM (inactive) | > 100 µM (inactive) | > 100 µM (inactive) | – |
| O=C1CC(c2ccccc2)C2(C(=O)NC(=S)NC2=O)C(c2ccccc2)C1 (stereo not given) | > 75 µM (inactive) | > 75 µM (inactive) | > 75 µM (inactive) | > 75 µM (inactive) | > 75 µM (inactive) | > 75 µM (inactive) | > 75 µM (inactive) | > 75 µM (inactive) | > 75 µM (inactive) | > 75 µM (inactive) | > 75 µM (inactive) | > 75 µM (inactive) | 41.3 µM (inactive) | – | – | > 75 µM (inactive) | – | > 75 µM (inactive) |
| COc1ccc(CNc2nc3cc(C(F)(F)F)ccc3nc2C(=O)O)cc1OC | – | 26.8 µM (inactive) | 32.9 µM (inactive) | 41.4 µM (inactive) | 28.6 µM (inactive) | 47.9 µM (inactive) | 22 µM (inactive) | 36.6 µM (inactive) | 20.8 µM (inactive) | – | 35.6 µM (inactive) | 22.5 µM (inactive) | – | 29.7 µM (inactive) | – | 32.5 µM (inactive) | 27.5 µM (inactive) | 37.8 µM (inactive) |
| CC(C)(C)CNC(=O)NCn1cc(-c2ccccc2)nn1 | > 100 µM (inactive) | > 100 µM (inactive) | > 100 µM (inactive) | > 100 µM (inactive) | > 100 µM (inactive) | – | > 100 µM (inactive) | > 100 µM (inactive) | > 100 µM (inactive) | > 100 µM (inactive) | > 100 µM (inactive) | > 100 µM (inactive) | > 100 µM (inactive) | – | – | > 100 µM (inactive) | – | – |
| CCC1(CCSC(=N)N)C(=O)NC(=O)NC1=O | > 100 µM (inactive) | > 100 µM (inactive) | > 100 µM (inactive) | > 100 µM (inactive) | > 100 µM (inactive) | – | > 100 µM (inactive) | > 100 µM (inactive) | > 100 µM (inactive) | > 100 µM (inactive) | > 100 µM (inactive) | > 100 µM (inactive) | 48.9 µM (inactive) | > 100 µM (inactive) | > 100 µM (inactive) | > 100 µM (inactive) | > 100 µM (inactive) | – |
| C1=CC2C(C3CN(c4ccccc4)N=C13)C1C3C4C=CC21C=CC43 (stereo not given) | > 100 µM (inactive) | > 100 µM (inactive) | > 100 µM (inactive) | – | > 100 µM (inactive) | > 65.3 µM (inactive) | > 100 µM (inactive) | > 100 µM (inactive) | > 100 µM (inactive) | > 100 µM (inactive) | > 100 µM (inactive) | > 100 µM (inactive) | > 100 µM (inactive) | > 100 µM (inactive) | > 100 µM (inactive) | > 100 µM (inactive) | > 100 µM (inactive) | 0.189 µM (active) |
| CC(C)[C@H](NC(=O)[C@H](C(C)C)N(Cc1ccccc1)Cc1ccccc1)C(=O)N(C)[C@H](C(=O)N1CCC[C@H]1C(=O)N(C)[C@H](C)C(=O)NCc1ccc2c(c1)OCO2)C(C)C (Bn2Val-V[NMeV]P[dNMeA]-NHPiperonyl) | 17.7 µM (inactive) | – | 13.6 µM (inactive) | 11.6 µM (inactive) | 19.9 µM (inactive) | – | 29.9 µM (inactive) | 3.93 µM (inactive) | – | 18.3 µM (inactive) | 3.03 µM (inactive) | 2.15 µM (inactive) | 1.17 µM (inactive) | 41.6 µM (inactive) | 39.1 µM (inactive) | 6.56 µM (inactive) | – | – |
| O=c1[nH]n(Cc2ccccc2Cl)c2ccccc12 | 40.6 µM (inactive) | > 100 µM (inactive) | > 100 µM (inactive) | > 100 µM (inactive) | > 100 µM (inactive) | 45.5 µM (inactive) | > 100 µM (inactive) | > 100 µM (inactive) | > 100 µM (inactive) | > 100 µM (inactive) | > 100 µM (inactive) | > 100 µM (inactive) | > 100 µM (inactive) | – | > 100 µM (inactive) | > 100 µM (inactive) | > 100 µM (inactive) | – |
| C/C(=N/NC(=S)N1CCCCC1)c1cccc(/C(C)=N\NC(=S)N2CCCCC2)n1 | 3.22 µM (inactive) | 1.93 µM (inactive) | 2.01 µM (inactive) | 2.23 µM (inactive) | 2.08 µM (inactive) | 2.62 µM (inactive) | 4.71 µM (inactive) | 1.89 µM (inactive) | 1.95 µM (inactive) | 1.8 µM (inactive) | 2.51 µM (inactive) | 2.43 µM (inactive) | 1.84 µM (inactive) | 1.91 µM (inactive) | 2.38 µM (inactive) | 1.31 µM (inactive) | 1.69 µM (inactive) | – |
| CC(C)=CC(C)C(C(O)CCC1(c2ccoc2)OCCO1)S(=O)(=O)c1ccccc1 (stereo not given) | > 100 µM (inactive) | > 100 µM (inactive) | > 100 µM (inactive) | – | > 100 µM (inactive) | > 100 µM (inactive) | > 100 µM (inactive) | > 100 µM (inactive) | > 100 µM (inactive) | > 100 µM (inactive) | – | > 100 µM (inactive) | – | > 100 µM (inactive) | – | > 100 µM (inactive) | > 100 µM (inactive) | > 100 µM (inactive) |
| O=[N+]([O-])/C=C/c1cn(CCCCCCCCCCCCn2cc(/C=C/[N+](=O)[O-])c3ccccc32)c2ccccc12 | – | > 100 µM (inactive) | > 100 µM (inactive) | > 100 µM (inactive) | > 100 µM (inactive) | – | > 100 µM (inactive) | > 100 µM (inactive) | > 100 µM (inactive) | > 100 µM (inactive) | > 100 µM (inactive) | > 100 µM (inactive) | > 100 µM (inactive) | > 100 µM (inactive) | > 100 µM (inactive) | > 100 µM (inactive) | > 100 µM (inactive) | – |
| S=C(c1c[nH]c2ccccc12)N1CCN(Cc2ccccc2)CC1 | 19.5 µM (inactive) | 16.5 µM (inactive) | 15.7 µM (inactive) | 17.5 µM (inactive) | 20.1 µM (inactive) | 15.5 µM (inactive) | 18.5 µM (inactive) | 25.2 µM (inactive) | 12.1 µM (inactive) | 26.4 µM (inactive) | 16.5 µM (inactive) | 16.5 µM (inactive) | 18.5 µM (inactive) | 20.7 µM (inactive) | 17.4 µM (inactive) | 17 µM (inactive) | 19.2 µM (inactive) | – |
